Reference: patent US20220325242A1, “IDH2 INHIBITION FOR PRODUCING T-CELLS AND B-CELLS WITH A MEMORY PHENOTYPE” (Universite de Lausanne, priority 2019, published 2022)

Tests used:
[1] = test system: accessible chromatin regions in OT1 T-cells; experiment: ATAC-seq of OT1 T-cells; type: cell-based, mouse; conditions: day 7, 5 μM day 0-3, compared to DMSO-treated T-cells
Description: Methods: OT1 splenocytes were activated and cultured with 5 μM AG221 or DMSO as described in Example 2. After 3 days, the cells were washed and the IDH2 inhibitor was washed out as well. The cells were then cultured for an additional 4 days in the absence of AG221. At day 7, the cells were collected and washed once with PBS. 50′000 cells were collected for ATAC-seq while the remaining cell pellet was lysed in extraction buffer (20 mM Tris HCl, 150 mM NaCl, 1% Triton X-100, 10% glycerol, 5 mM EDTA) supplemented with Complete Mini protease inhibitor (Roche) for wester blotting.
For ATAC-seq cells were transposed with the Illumina Tagment DNA Enzyme and Buffer Small Kit according to the protocol described by Buenrostro et al. (Curr Protoc Mol Biol. 2015 Jan 5;109:21.29.1-21.29.9.). Fragments were sequenced on an Illumina NextSeq 500 instrument.

B16-OVA melanoma = experiment: Tumor growth of B16-OVA tumors after adoptive transfer of inhibitor-treated OT1 T-cells; type: in vivo, mouse; conditions: mice adoptively transferred with T-cells treated in vitro
Description: Example 5. In vivo tumor model to characterize the phenotype and efficacy of cultured CD8+ T-cells upon adoptive cell transfer. An in vivo tumor model was used to determine the efficacy of in vitro cultured CD8+ T-cells treated with an IDH2 inhibitor in eliminating cancer cells (FIG. 10). B16-OVA melanoma cells (see Example 1) were cultured in DMEM (GIBCO) with 10% FCS and 1% P/S before their subcutaneous injection into the mouse flank. Each mouse received 100′000 cells in a volume of 200 μl of PBS. 6 days after B16-OVA cell injection, tumors were measured, mice were randomized and lymphodepleted by irradiation (5 Gray). 7 days after B16-Ova cell injection, mice were adoptively transferred with activated CD45.1^+ OT-1 splenocytes. […] Live splenocytes, almost exclusively consisting of CD8+ T-cells (about 98%), were counted with Trypan blue stain 0.4%. […]
Following the adoptive cell transfer (ACT), mice received a vaccination of CpG (50 μg/mouse) and N4 Ova peptide (10 μg/mouse) diluted in PBS to obtain a total volume of 100 μl/mouse, injected subcutaneously at the tail base to further stimulate the transferred cells. […] Tumors were measured every 2 days with a digital caliper and the tumor volume was calculated according to the formula: V=π×[d2×D]/6, wherein d is the smallest tumor axis and D is the largest tumor axis.

[2] = test system: human CD8+ T-cells from umbilical cord blood; experiment: CD62L flow cytometry of human cord blood mononuclear cells (CBMC); type: cell-based
Description: Methods: Mononuclear Cells were isolated from fresh umbilical cord blood on a Percoll Gradient (CBMCs). 10^4 CBMC's were seeded per well in a round bottom 96-well plate in RPMI with 10% human serum, and activated with (magnetic) αCD3/CD28 at a 1:2 cell:bead ratio and 300 U/ml rhIL-2, in the presence of 5 μM AG221 or DMSO, or 1 μM MK2206 (AKT inhibitor). After 11 days of culture, CD62L expression was analyzed by flow cytometry on a fraction of the cells (FIG. 15A). The other cells were washed 2 times and placed in a magnet to remove the inhibitors and the αCD3/CD28 beads. The cells were then rested for 4 hours before restimulating them for 4 hours with 1 ng/ml Phorbol 12-Myristate 13-Acetate (PMA, a PKC activator) and 50 μg/ml Ionomycin (a Ca^2+ ionophore, activating NF-KB and NFAT) in the presence of 50 μ/ml golgi inhibitor (Brefeldin A, BFA), allowing for the measurement of intracellular accumulation of different cytokines by flow cytometry.

OT1 CD8+ T cells = experiment: Extracellular flux analyses (XF-96 Seahorse) of OT1 CD8+ T cells; type: cell-based, mouse; conditions: day 7, compared to DMSO
Description: Example 2. In vitro culture of splenocytes comprising CD8+ T-cells. OT1 splenocytes (as described in Example 1) were cultured for 3 days at a concentration of 10^6 cells per mL in RPMI medium (Gibco 61870-01) supplemented with 10% FCS, (Gibco 10270-106), 1% Penicillin/Streptomycin (P/S; Gibco 15070-063), 0.1% 13-mercaptoethanol, 1% HEPES (Gibco 15630-080), 1× Non-essential amino acids (Gibco 11140-035), 1% L-glutamine (Gibco 25030-081), 1 mM Sodium Pyruvate (Gibco 11360-039), 100 U/m1 hIL-2 (Glaxo-IMB) and 1 μg/ml ovalbumin N4 peptide (SIINFEKL). To evaluate the effects of IDH2 inhibition on T-cell differentiation, 5 μM of a small molecule IDH2 inhibitor (AG221 or AGI6780) or a DMSO solvent control was added during this 3-day culture period. At day 3, a fraction of the splenocytes was collected and the remaining cells were cultured for 4 additional days with 100 U/ml hIL-2 and 10 ng/ml hIL-7 (Peprotech 200-07) supplementation after washing out the inhibitors and the ovalbumine N4 peptide (FIG. 1). At day 3 and day 7, the activation and differentiation state of CD8+ T-cells was determined by gene expression analysis, flow cytometry and extracellular metabolic flux analyses (see Example 3).
Real-time analysis of CD8^+ T cell oxygen consumption rate (OCR) was measured with an XF-96 Extracellular Flux Analyzer (Seahorse Bioscience) at day 7 of in vitro culture (FIG. 7). Measurements were performed while successively adding different drugs to the culture without any washing steps in between. Specifically, the measurements were performed under basal conditions, after addition of 1.25 μM oligomycin, a complex V inhibitor that blocks mitochondrial ATP synthase, after addition of 1 μM protonophore FCCP (fluoro-carbonyl cyanide phenylhydrazone) to uncouple ATP synthesis from oxygen consumption by the electron transport chain, after addition of 50 μM etomoxir to inhibit CPT1alpha, and thus fatty acid oxidation, and after addition of 100 nM rotenone and 1 μM antimycin A to inhibit the electron transport chain.
The basal OCR is the OCR measured in the absence of drugs. Addition of oligomycin allows to calculate the ATP-linked respiration by subtracting the oligomycin OCR from basal OCR. FCCP enables the electron transport chain (ETC) to reach its maximal rate, allowing to determine the cellular maximal respiratory capacity. Finally, rotenone and antimycin A inhibit the ETC which indicates the non-mitochondrial respiration. The spare respiratory capacity (SRC) is defined as the difference between basal OCR and maximal OCR obtained after FCCP addition.
In addition, the extracellular acidification rate (ECAR), which is an indicator for […], was measured using the same device under basal conditions. This allowed further calculating the OCR/ECAR ratio as indicator of basal mitochondrial activity.

CC(C)(O)CNc1nc(Nc2ccnc(C(F)(F)F)c2)nc(-c2cccc(C(F)(F)F)n2)n1 [AG221, 2-methyl-1-[[4-[6-(trifluoromethyl)pyridin-2-yl]-6-[[2-(trifluoromethyl)pyridin-4-yl]amino]-1,3,5-triazin-2-yl]amino]propan-2-ol]
more accessible regions in the DNA (ATAC-seq) [1]: 1633
tumor burden, in particular tumor growth (B16-OVA melanoma): significantly reduced
CD62L expression in human CD8+ T-cells ([2]; day 11, 5 μM, versus DMSO): strong upregulation
CD8+ cells expressing CD62L ([2]; day 11, AG221 5 μM, MK2206 1 μM, DMSO control about 35%): about 75%
OCR/ECAR ratio (OT1 CD8+ T cells): unchanged
basal oxygen consumption rate (OCR) (OT1 CD8+ T cells): significantly increased
extracellular acidification rates (ECAR) (OT1 CD8+ T cells): unchanged
maximal respiratory capacity (OT1 CD8+ T cells): significantly increased
spare respiratory capacity (SRC) (OT1 CD8+ T cells): significantly increased
